Target: T1, human adenosine-A3 receptor (Homo sapiens, UniProt P0DMS8)
T1 construct: expressed in transfected cells; membrane preparations
T1 sequence (P0DMS8 1-318): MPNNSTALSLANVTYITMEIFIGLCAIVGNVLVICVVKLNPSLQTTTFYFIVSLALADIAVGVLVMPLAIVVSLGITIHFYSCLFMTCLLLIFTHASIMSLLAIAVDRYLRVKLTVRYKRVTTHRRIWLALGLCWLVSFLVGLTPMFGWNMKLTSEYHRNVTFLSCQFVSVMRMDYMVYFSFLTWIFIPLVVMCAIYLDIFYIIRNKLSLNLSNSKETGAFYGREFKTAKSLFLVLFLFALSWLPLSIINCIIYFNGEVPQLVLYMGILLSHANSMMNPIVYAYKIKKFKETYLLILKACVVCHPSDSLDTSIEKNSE
Assay: Receptor binding to human adenosine-A3 receptors ([125I]-AB-MECA displacement, HEK 293 membranes)
Experimental: Receptor Binding to Human Adenosine-A3 Receptors
Affinity of the compounds for human adenosine-A3 receptors was determined using the receptor binding assay described by C. A. Salvatore et al.: Molecular cloning and characterization of the human A3 adenosine receptor, Proc. Natl. Acad. Sci. USA, 90, 10365-10369, 1993. Briefly, membrane preparations were obtained from human recombinant (HEK 293) cells in which the human adenosine-A3 receptor was stably expressed. Membranes were incubated at 22° C. for 90 minutes with [^125l]-AB-MECA in the absence or presence of testcompounds in a concentration range from 10 μM down to 0.1 nM, diluted in a suitable buffer. Separation of bound radioactivity from free was done by filtration through Packard GF/B glass fiber filters with several washings with ice-cold buffer using a Packard cell harvester. Bound radioactivity was measured with a scintillation counter (Topcount, Packard) using a liquid scintillation cocktail (Microscint 0, Packard). Measured radioactivity was plotted against the concentration of the displacing test compound and displacement curves were calculated by four-parameter logistic regression, resulting in IC50 values, i.e. that concentration of displacing compound by which 50% of the radioligand is displaced. […]

Ki ([125I]-AB-MECA, membranes of HEK 293 cells expressing human A3, 22° C., 90 minutes, read-out: affinity for human adenosine-A3 receptors pKi (converted)): 1 nM | affinity for human adenosine-A3 receptors (in words) (binding assay, result stated in words): highly active
SMILES: C[C@@H](Nc1nc(Cl)nc(Nc2ccc3c(c2)OCO3)n1)[C@@H](O)c1ccccc1 [formula (9), (1S,2R)-2-{[4-chloro-6-(3,4-methylenedioxy-phenylamino)-[1,3,5]triazin-2-yl]-amino}-1-phenyl-propan-1-ol]

From patent US7307079B2, “1,3,5-Triazine derivatives as ligands for human adenosine-A3 receptors” (Solvay Pharmaceuticals, B.V., priority 2002, dated 2007)
